Laboratory results from US20050054696A1, “Indole compounds and medicinal use thereof” (priority 2001, published 2005).
pIC50: −log10 of the molar value.

Molecular target: T1, recombinant human liver glycogen phosphorylase (HLGPa) (Homo sapiens, UniProt P06737)
T1 construct: made in house; host or cells: Sf9 insect cells (unpurified cell lysate used as enzyme solution)
T1 sequence (P06737 1-847): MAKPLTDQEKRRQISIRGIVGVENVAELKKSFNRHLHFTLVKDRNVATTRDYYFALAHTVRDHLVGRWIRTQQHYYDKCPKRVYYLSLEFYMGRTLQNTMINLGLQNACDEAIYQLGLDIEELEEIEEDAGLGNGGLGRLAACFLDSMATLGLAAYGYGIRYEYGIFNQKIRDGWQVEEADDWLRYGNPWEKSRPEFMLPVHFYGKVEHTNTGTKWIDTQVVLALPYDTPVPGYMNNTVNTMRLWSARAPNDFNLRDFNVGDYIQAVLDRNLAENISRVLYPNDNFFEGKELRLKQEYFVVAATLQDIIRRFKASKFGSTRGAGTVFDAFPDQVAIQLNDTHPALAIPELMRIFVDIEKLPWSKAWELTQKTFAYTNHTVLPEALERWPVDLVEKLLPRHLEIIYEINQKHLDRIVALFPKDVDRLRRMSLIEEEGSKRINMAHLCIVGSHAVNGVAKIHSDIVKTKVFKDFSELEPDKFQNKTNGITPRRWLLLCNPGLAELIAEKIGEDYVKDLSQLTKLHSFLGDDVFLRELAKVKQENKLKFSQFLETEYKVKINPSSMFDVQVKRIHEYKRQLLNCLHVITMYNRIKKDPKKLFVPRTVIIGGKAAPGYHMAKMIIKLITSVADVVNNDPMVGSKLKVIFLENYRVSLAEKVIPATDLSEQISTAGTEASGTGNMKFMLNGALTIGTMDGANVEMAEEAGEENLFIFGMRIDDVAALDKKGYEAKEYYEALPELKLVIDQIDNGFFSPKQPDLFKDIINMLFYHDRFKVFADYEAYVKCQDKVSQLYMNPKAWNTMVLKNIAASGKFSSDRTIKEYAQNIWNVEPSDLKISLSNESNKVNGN
Assay: Measurement of liver glycogen phosphorylase activity (enzyme inhibitory activity against HLGPa)
Type: biochemical
Settings: Sf9 cell lysate expressing recombinant enzyme; reverse reaction (glycogen synthesis from G1-P), phosphate by malachite green, 60 min room temperature
Experimental: Measurement Method of Liver Glycogen Phosphorylase Activity
The measurement of the glycogen phosphorylase activity was performed by measuring the concentration of phosphoric acic produced by a reverse reaction, that is, a reaction wherein the glycogen phosphorylase synthesizes glycogen from G1-P. A cell lysate of Sf9 cells that forcibly expressed recombinant human liver glycogen phosphorylase was diluted to a protein amount of 80 μg/mL with 1 mM imidazole-hydrochloric acid buffer (pH 7.0, containing 0.2 mM PMSF, 250 mM NaCl, 0.025% BSA) and the dilute cell lysate was used as an enzyme solution of human liver glycogen phosphorylase. As a substrate solution, 25 mM Tris-HCl buffer (pH 7.2, containing 250 mM KCl, 6.25 mM MgCl2, 6.25 mM EGTA, 1.25 mM glucose-1-phosphate, 2.5 mg/ml glycogen, 7.5 mM glucose) was used. The test drug was dissolved in 0.5% dimethyl sulfoxide (DMSO). To a mixture of the test drug (10 μl) and the substrate solution (20 μl) was added an enzyme solution (20 μl) to start the enzyme reaction. As a control, 0.5% DMSO was added instead of the test drug. One free of addition of enzyme was used as a blank. The mixture was reacted at room temperature for 60 min, and a malachite green solution (50 μl) was added. The mixture was further reacted at room temperature for 20 min and absorbance at 650 nm was measured. An enzyme solution was added to the blank simultaneously with the malachite green solution and the measurement was done in the same manner. The percent inhibition (%) of the test drug was calculated from ((value of control−value of the test drug)/(value of control−value of blank))×100 (%).

pIC50 | SMILES
6.35 | Cc1ccsc1C(=O)NNC(=O)c1cc2cc(Cl)ccc2[nH]1 [Example 1-89, 3-methylthiophene-2-carboxylic acid 2-(5-chloro-1H-indole-2-carbonyl)hydrazide]
7.25 | O=C(NNC(=O)c1cccc(F)c1F)c1cc2cc(Cl)ccc2[nH]1 [Example 1-91, 2,3-difluorobenzoic acid 2-(5-chloro-1H-indole-2-carbonyl)hydrazide]
7.15 | O=C(NNC(=O)c1cccc2ccccc12)c1cc2cc(Cl)ccc2[nH]1 [Example 1-92, 5-chloro-1H-indole-2-carboxylic acid 2-(naphthalene-1-carbonyl)hydrazide]
6.57 | O=C(NNC(=O)c1cc2cc(Cl)ccc2[nH]1)c1cc(F)c(F)c(F)c1 [Example 1-93, 3,4,5-trifluorobenzoic acid 2-(5-chloro-1H-indole-2-carbonyl)hydrazide]
6.28 | O=C(NNC(=O)c1cc(F)c(F)c(F)c1F)c1cc2cc(Cl)ccc2[nH]1 [Example 1-94, 2,3,4,5-tetrafluorobenzoic acid 2-(5-chloro-1H-indole-2-carbonyl)hydrazide]
6.55 | Cc1ccc(C(=O)NNC(=O)c2cc3cc(Cl)ccc3[nH]2)c(N)c1 [Example 1-95, 2-amino-4-methylbenzoic acid 2-(5-chloro-1H-indole-2-carbonyl)hydrazide]
8.00 | Cc1ccc(N)c(C(=O)NNC(=O)c2cc3cc(Cl)ccc3[nH]2)c1 [Example 1-97, 2-amino-5-methylbenzoic acid 2-(5-chloro-1H-indole-2-carbonyl)hydrazide]
7.06 | Cc1cccc(N)c1C(=O)NNC(=O)c1cc2cc(Cl)ccc2[nH]1 [Example 1-98, 2-amino-6-methylbenzoic acid 2-(5-chloro-1H-indole-2-carbonyl)hydrazide]
8.00 | Cc1cccc(C(=O)NNC(=O)c2cc3cc(Cl)ccc3[nH]2)c1N [Example 1-99, 2-amino-3-methylbenzoic acid 2-(5-chloro-1H-indole-2-carbonyl)hydrazide]
6.62 | Nc1cc(F)c(F)cc1C(=O)NNC(=O)c1cc2cc(Cl)ccc2[nH]1 [Example 1-100, 2-amino-4,5-difluorobenzoic acid 2-(5-chloro-1H-indole-2-carbonyl)hydrazide]
7.46 | Nc1ccsc1C(=O)NNC(=O)c1cc2cc(Cl)ccc2[nH]1 [Example 1-101, 3-aminothiophene-2-carboxylic acid 2-(5-chloro-1H-indole-2-carbonyl)hydrazide]
< 7.00 | Nc1ccccc1C(=O)NNC(=O)c1cc2cc(Br)ccc2[nH]1 [Example 1-102, 2-aminobenzoic acid 2-(5-bromo-1H-indole-2-carbonyl)hydrazide]
7.55 | Nc1cc(F)ccc1C(=O)NNC(=O)c1cc2cc(Br)ccc2[nH]1 [Example 1-103, 2-amino-4-fluorobenzoic acid 2-(5-bromo-1H-indole-2-carbonyl)hydrazide]
7.68 | O=C(NNC(=O)c1cc2cc(Cl)ccc2[nH]1)c1cn[nH]c1 [Example 1-104, 1H-pyrazole-4-carboxylic acid 2-(5-chloro-1H-indole-2-carbonyl)hydrazide]
7.06 | COC(=O)Nc1ccccc1C(=O)NNC(=O)c1cc2cc(F)ccc2[nH]1 [Example 1-105, methyl (2-(2-(5-fluoro-1H-indole-2-carbonyl)hydrazinocarbonyl)phenyl)carbamate]
7.11 | Cc1ccc2[nH]c(C(=O)NNC(=O)c3cccn3C)cc2c1 [Example 1-106, 1-methyl-1H-pyrrole-2-carboxylic acid 2-(5-methyl-1H-indole-2-carbonyl)hydrazide]

pIC50 | SMILES
7.27 | Cc1ccc2[nH]c(C(=O)NNC(=O)c3ccsc3)cc2c1 [Example 1-107, thiophene-3-carboxylic acid 2-(5-methyl-1H-indole-2-carbonyl)hydrazide]
7.25 | O=C(NNC(=O)c1cc2sccc2[nH]1)c1cc2cc(Cl)ccc2[nH]1 [Example 1-108, 4H-thieno[3,2-b]pyrrole-5-carboxylic acid 2-(5-chloro-1H-indole-2-carbonyl)hydrazide]
7.55 | O=C(Nc1ccccc1C(=O)NNC(=O)c1cc2cc(Cl)ccc2[nH]1)OCCCO [Example 1-112, 3-hydroxypropyl (2-(2-(5-chloro-1H-indole-2-carbonyl)hydrazinocarbonyl)phenyl)carbamate]
7.39 | CN(NC(=O)c1cc2cc(Cl)ccc2[nH]1)C(=O)C1CCCCC1 [Example 1-116, cyclohexanecarboxylic acid 2-(5-chloro-1H-indole-2-carbonyl)-1-methylhydrazide]
< 7.00 | O=C(NNC(=O)c1cc2cc([N+](=O)[O-])ccc2[nH]1)c1ccccc1 [Example 1-122, benzoic acid 2-(5-nitro-1H-indole-2-carbonyl)hydrazide]
< 7.00 | O=C(NNC(=O)c1cc2cc(OCc3ccccc3)ccc2[nH]1)c1ccccc1 [Example 1-123, benzoic acid 2-(5-benzyloxy-1H-indole-2-carbonyl)hydrazide]
< 7.00 | O=C(NNC(=O)c1cc2ccc(Cl)cc2[nH]1)c1ccccc1 [Example 1-124, benzoic acid 2-(6-chloro-1H-indole-2-carbonyl)hydrazide]
6.72 | O=C(NNC(=O)c1cc2ccsc2[nH]1)c1cc2cc(Cl)ccc2[nH]1 [Example 1-125, 6H-thieno[2,3-b]pyrrole-5-carboxylic acid 2-(5-chloro-1H-indole-2-carbonyl)hydrazide]
7.08 | N=C(NNC(=O)c1cc2cc(Cl)ccc2[nH]1)c1cccc(F)c1 [Example 1-127, 5-chloro-1H-indole-2-carboxylic acid 2-((3-fluorophenyl)-imino-methyl)hydrazide]
7.48 | N=C(NNC(=O)c1cc2cc(Cl)ccc2[nH]1)c1ccc(F)cc1 [Example 1-128, 5-chloro-1H-indole-2-carboxylic acid 2-((4-fluorophenyl)-imino-methyl)hydrazide]
7.23 | Cc1ccc(C(=N)NNC(=O)c2cc3cc(Cl)ccc3[nH]2)cc1 [Example 1-129, 5-chloro-1H-indole-2-carboxylic acid 2-(imino-(p-tolyl)-methyl)hydrazide]
6.96 | N=C(NNC(=O)c1cc2cc(Cl)ccc2[nH]1)c1cccc(F)c1 [Example 1-132, 5-chloro-1H-indole-2-carboxylic acid 2-((3-fluorophenyl)-imino-methyl)hydrazide]
7.30 | Cc1ccccc1C(=N)NNC(=O)c1cc2cc(Cl)ccc2[nH]1 [Example 1-133, 5-chloro-1H-indole-2-carboxylic acid 2-(imino-(o-tolyl)-methyl)hydrazide]
6.57 | N=C(NNC(=O)c1cc2cc(Cl)ccc2[nH]1)c1ccccn1 [Example 1-136, 5-chloro-1H-indole-2-carboxylic acid 2-(imino-(pyridin-2-yl)-methyl)hydrazide]
6.48 | N=C(NNC(=O)c1cc2cc(Cl)ccc2[nH]1)c1ccco1 [Example 1-137, 5-chloro-1H-indole-2-carboxylic acid 2-((furan-2-yl)-imino-methyl)hydrazide]
6.34 | N=C(NNC(=O)c1cc2cc(Cl)ccc2[nH]1)c1c(F)cccc1Cl [Example 1-138, 5-chloro-1H-indole-2-carboxylic acid 2-((2-chloro-6-fluorophenyl)-imino-methyl)hydrazide]

SMILES | pIC50
O=C(Nc1ccccc1C(=O)NNC(=O)c1cc2cc(Cl)ccc2[nH]1)Oc1ccccc1 [Example 1-109, phenyl (2-(2-(5-chloro-1H-indole-2-carbonyl)hydrazinocarbonyl)phenyl)carbamate] | 6.85
O=C(Nc1ccccc1C(=O)NNC(=O)c1cc2cc(Cl)ccc2[nH]1)OCc1ccccc1 [Example 1-110, benzyl (2-(2-(5-chloro-1H-indole-2-carbonyl)hydrazinocarbonyl)phenyl)carbamate] | 7.46
